{"source": "ChEMBL document CHEMBL5154823", "about": "“Amphiphilic cyclic peptide [W4KR5]-Antibiotics combinations as broad-spectrum antimicrobial agents” (Eur J Med Chem, 2022)", "key": {"Staphylococcus aureus": {"system": "Staphylococcus aureus", "test": "Synergistic antibacterial activity against methicillin resistant Staphylococcus aureus ATCC BAA -1556 assessed as fractional inhibitory concentration index incubated for 24 hrs in presence of meropenem by checkerboard assay", "format": "functional"}, "Pseudomonas aeruginosa [1]": {"system": "Pseudomonas aeruginosa", "test": "Antibacterial activity against Pseudomonas aeruginosa ATCC 27883 assessed as tetracycline MIC incubated for 24 hrs by microbroth dilution assay", "format": "functional"}, "[2]": {"test": "Cytotoxicity against HEK293 cells assessed as effect on cell viability at 10 to 25 ug/ml incubated for 24 hrs by microplate reader analysis relative to control", "format": "toxicity, cell-based", "settings": "human, at 10 to 25 µg/mL, dose 10-25 µg/ml, read-out: Activity"}, "Cell membrane": {"system": "Cell membrane", "test": "Induction of membrane disruption in Pseudomonas aeruginosa ATCC BAA 1744 assessed as increase in PI positive cells at MIC incubated for 2 hrs by Propidium iodide staining based FACS cytometry analysis relative to control"}, "Klebsiella pneumoniae [3]": {"system": "Klebsiella pneumoniae", "test": "Bactericidal activity against Klebsiella pneumoniae ATCC BAA 1705 assessed as decrease in bacterial growth at MIC measured after 18 hrs by Time kill assay", "format": "functional, organism-based"}, "Klebsiella pneumoniae [4]": {"system": "Klebsiella pneumoniae", "test": "Synergistic antibacterial activity against Klebsiella pneumoniae ATCC BAA 1705 assessed as fractional inhibitory concentration index incubated for 24 hrs in presence of levofloxacin by checkerboard assay", "format": "functional"}, "Pseudomonas aeruginosa [5]": {"system": "Pseudomonas aeruginosa", "test": "Synergistic antibacterial activity against Pseudomonas aeruginosa ATCC 27883 assessed as fractional inhibitory concentration index incubated for 24 hrs in presence of tetracycline by checkerboard assay", "format": "functional"}, "Escherichia coli": {"system": "Escherichia coli", "test": "Synergistic antibacterial activity against Escherichia coli ATCC 25922 assessed as fractional inhibitory concentration index incubated for 24 hrs in presence of vancomycin by checkerboard assay", "format": "functional"}}, "note": "Active and inactive are the calls of the source. The rule behind the calls is not given here. Where a SMILES comes first, the peptide text is derived from it."}
{"smiles": "N=C(N)NCCC[C@@H]1NC(=O)[C@H](CCCNC(=N)N)NC(=O)[C@H](CCCNC(=N)N)NC(=O)[C@H](CCCNC(=N)N)NC(=O)[C@H](Cc2c[nH]c3ccccc23)NC(=O)[C@H](Cc2c[nH]c3ccccc23)NC(=O)[C@H](Cc2c[nH]c3ccccc23)NC(=O)[C@H](Cc2c[nH]c3ccccc23)NC(=O)[C@H](CCCCN)NC(=O)[C@H](CCCNC(=N)N)NC1=O", "note": "(cyclo(KWWWWRRRRR))", "values": [{"measurement": "fractional inhibitory concentration index (FICI)", "setting": "Staphylococcus aureus", "value": 1}, {"measurement": "MIC", "setting": "Pseudomonas aeruginosa [1]", "value": 4, "unit": "µg/mL"}, {"measurement": "viability at 24 h", "setting": "[2]", "value": 86, "unit": "%"}, {"measurement": "Activity", "setting": "Cell membrane", "value": 39.9, "unit": "%"}, {"measurement": "Activity", "setting": "Klebsiella pneumoniae [3]", "value": "Active"}, {"measurement": "fractional inhibitory concentration index (FICI)", "setting": "Klebsiella pneumoniae [4]", "value": 0.375}, {"measurement": "fractional inhibitory concentration index (FICI)", "setting": "Pseudomonas aeruginosa [5]", "value": 0.375}, {"measurement": "fractional inhibitory concentration index (FICI)", "setting": "Escherichia coli", "value": 0.5625}]}
